From ChEMBL document CHEMBL3632521, “A study of ad-proline peptidomimetic inhibitor of melanoma and endothelial cell invasion through activity towards MMP-2 and MMP-9” (Medchemcomm, 2015)
Activity calls are given as the source filed them. The calls are words filed in the database; no cut-off is given here.

Tests used:
[1] = target: T1, Matrix metalloproteinase-9 (Homo sapiens, UniProt P14780); experiment: Inhibition MMP-9 (unknown origin) using Mca-Lys-Pro-Leu-Gly-Leu-Dpa-Ala-Arg-NH2 as substrate preincubated for 5 mins followed by substrate addition measured for 30 mins by fluorometric assay
T1 sequence (P14780 whole entry): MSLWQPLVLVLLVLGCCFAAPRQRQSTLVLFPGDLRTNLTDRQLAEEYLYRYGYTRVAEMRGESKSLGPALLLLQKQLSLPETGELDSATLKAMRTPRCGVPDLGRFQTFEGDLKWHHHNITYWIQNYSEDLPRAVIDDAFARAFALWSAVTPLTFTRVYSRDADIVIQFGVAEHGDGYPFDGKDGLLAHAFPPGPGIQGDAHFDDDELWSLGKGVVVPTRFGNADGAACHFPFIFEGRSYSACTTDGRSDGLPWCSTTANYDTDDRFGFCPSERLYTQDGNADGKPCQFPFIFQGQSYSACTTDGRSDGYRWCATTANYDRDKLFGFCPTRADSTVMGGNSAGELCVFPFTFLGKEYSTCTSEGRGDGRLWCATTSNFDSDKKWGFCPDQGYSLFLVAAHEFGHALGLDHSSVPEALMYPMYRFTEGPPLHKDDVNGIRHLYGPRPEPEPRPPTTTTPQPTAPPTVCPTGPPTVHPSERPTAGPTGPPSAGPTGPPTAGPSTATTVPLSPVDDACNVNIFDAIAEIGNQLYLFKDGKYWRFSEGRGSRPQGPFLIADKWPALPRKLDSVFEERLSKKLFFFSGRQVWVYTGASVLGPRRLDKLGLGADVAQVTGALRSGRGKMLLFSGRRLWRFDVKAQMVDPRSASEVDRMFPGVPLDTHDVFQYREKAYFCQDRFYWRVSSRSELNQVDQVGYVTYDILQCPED

[2] = target: 72 kDa type IV collagenase (Homo sapiens, UniProt P08253); experiment: Inhibition MMP-2 (unknown origin) using Mca-Lys-Pro-Leu-Gly-Leu-Dpa-Ala-Arg-NH2 as substrate preincubated for 5 mins followed by substrate addition measured for 30 mins by fluorometric assay
Chain of 72 kDa type IV collagenase (P08253 whole entry): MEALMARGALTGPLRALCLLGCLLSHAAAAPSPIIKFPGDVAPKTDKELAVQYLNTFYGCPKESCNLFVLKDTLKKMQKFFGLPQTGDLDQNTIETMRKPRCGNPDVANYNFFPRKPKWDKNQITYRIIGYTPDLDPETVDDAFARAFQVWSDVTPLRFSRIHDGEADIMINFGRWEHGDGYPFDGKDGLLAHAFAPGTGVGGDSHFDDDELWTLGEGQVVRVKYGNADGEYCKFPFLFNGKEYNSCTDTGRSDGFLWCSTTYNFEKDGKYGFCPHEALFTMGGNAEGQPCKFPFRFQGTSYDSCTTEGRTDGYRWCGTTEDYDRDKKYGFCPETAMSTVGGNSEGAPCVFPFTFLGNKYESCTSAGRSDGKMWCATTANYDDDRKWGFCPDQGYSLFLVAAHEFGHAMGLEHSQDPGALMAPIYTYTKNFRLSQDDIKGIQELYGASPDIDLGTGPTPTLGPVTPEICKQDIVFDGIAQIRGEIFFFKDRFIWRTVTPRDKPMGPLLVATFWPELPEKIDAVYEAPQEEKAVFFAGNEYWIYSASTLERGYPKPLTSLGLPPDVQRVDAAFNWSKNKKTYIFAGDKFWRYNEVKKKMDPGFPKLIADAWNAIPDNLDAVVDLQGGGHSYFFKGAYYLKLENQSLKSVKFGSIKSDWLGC

[3] = Cytotoxic activity in human A375P cells at 2.5 to 50 uM after 24 hrs by trypan blue based inverted-phase microscopic analysis; format: cell-based
[4] = Cytostatic activity in human A375P cells at 2.5 to 50 uM after 24 hrs by trypan blue based inverted-phase microscopic analysis; format: ADME, cell-based
Mus musculus = organism: Mus musculus; experiment: Antiangiogenic activity in FVB mouse receiving 20 uM compound containing matrigel mixtures with heparin resuspended in EGM-2 medium assessed as reduction in capillary network formation after 5 days by microscopy based matrigel sponge assay; format: functional, organism-based
EPC = experiment: Antiinvasive activity in human endothelial progenitor cells at 20 uM after 24 hrs by matrigel assay; format: functional
[5] = target: T1, Matrix metalloproteinase-9; experiment: Inhibition of gelatinolytic activity of pro-MMP9 in human A375P cells assessed as reduction in active form of protein by gelatin zymography; format: cell-based
A375P = experiment: Antiinvasive activity in human A375P cells assessed as reduction in tumor cell migration at 20 uM measured for 6 hrs by matrigel assay; format: functional, cell-based
[6] = Cytostatic activity in human A375P cells at 2.5 to 50 uM after 72 hrs by trypan blue based inverted-phase microscopic analysis; format: ADME, cell-based
[7] = target: T1, Matrix metalloproteinase-9; experiment: Inhibition of gelatinolytic activity of pro-MMP9 in human endothelial progenitor cells assessed as reduction in active form of protein at 20 uM by gelatin zymography

Row | SMILES | IC50 ([1]; read-out: IC50) [nM] | IC50 [2] | IC50 ([2]; read-out: IC50) [nM] | also measured
1 | COc1ccc(C(=O)N[C@H]2C[C@H](C(=O)NO)N(S(=O)(=O)c3ccc(Cl)c(Cl)c3)C2)c(OC)c1 | 1710 | Not Active |  | 
2 | O=C(NO)[C@H]1C[C@H](n2cc(-c3ccccc3)nn2)CN1S(=O)(=O)c1ccc(Cl)c(Cl)c1 | 1200 |  |  | 
3 | O=C(N[C@H]1C[C@H](C(=O)NO)N(S(=O)(=O)c2ccc(Cl)c(Cl)c2)C1)c1cccs1 |  |  |  | IC50 [1]: Not Active
4 | COc1ccc(C(=O)N[C@@H]2C[C@H](C(=O)NO)N(S(=O)(=O)c3ccc(Cl)c(Cl)c3)C2)c(OC)c1 | 560 |  | 450 | Activity [3]: Non-toxic; Activity [4]: Non-toxic; Activity (Mus musculus): Active; Activity (EPC): Active; inhibition [5]: Dose-dependent effect; Activity (A375P): Active; Activity [6]: Toxic; inhibition [7]: Active
5 | O=C(NO)[C@H]1C[C@@H](NS(=O)(=O)c2ccc(-c3ccccc3)cc2)CN1S(=O)(=O)c1ccc(Cl)c(Cl)c1 | 590 | Not Active |  | 
6 | O=C(NO)[C@H]1C[C@@H](OCc2ccccc2)CN1S(=O)(=O)c1ccc(Cl)c(Cl)c1 | 900 | Not Active |  | 
7 | O=C(N[C@@H]1C[C@H](C(=O)NO)N(S(=O)(=O)c2ccc(Cl)c(Cl)c2)C1)c1cccs1 | 100 |  | 144 | 
8 | O=C(NO)[C@H]1C[C@H](NS(=O)(=O)c2ccc(-c3ccccc3)cc2)CN1S(=O)(=O)c1ccc(Cl)c(Cl)c1 | 60 |  | 360 | 
9 | O=C(/C=C/c1ccco1)N[C@H]1C[C@H](C(=O)NO)N(S(=O)(=O)c2ccc(Cl)c(Cl)c2)C1 | 360 |  |  | 
